The experiment concerns the target T1, human recombinant serotonin (5-Hydroxytryptamine) 5-HT2C receptor (Homo sapiens, UniProt P28335).
T1 construct: expressed in transfected cells; host or cells: CHO-K1 cells
T1 sequence (P28335 33-458): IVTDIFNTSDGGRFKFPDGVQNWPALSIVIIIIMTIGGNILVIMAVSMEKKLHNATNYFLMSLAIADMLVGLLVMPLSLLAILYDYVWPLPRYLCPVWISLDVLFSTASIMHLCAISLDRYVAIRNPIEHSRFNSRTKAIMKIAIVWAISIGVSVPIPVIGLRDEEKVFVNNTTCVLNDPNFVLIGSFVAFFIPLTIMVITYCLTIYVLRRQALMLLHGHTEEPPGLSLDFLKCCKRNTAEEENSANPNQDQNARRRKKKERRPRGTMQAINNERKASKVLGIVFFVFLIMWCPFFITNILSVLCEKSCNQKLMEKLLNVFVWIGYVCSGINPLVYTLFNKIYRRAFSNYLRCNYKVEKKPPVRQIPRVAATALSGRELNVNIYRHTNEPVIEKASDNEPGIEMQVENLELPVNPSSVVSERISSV
Briefly: Serotonin 5-HT2C radioligand binding ([3H]Mesulergine). The following applies: compound at 1 μM; read-out: Serotonin (1 μM) 5-HT2C, percent inhibition of specific binding. Summed up:
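Membranes from CHO-K1 cells expressing human 5-HT2C, incubated with 1 nM [3H]mesulergine for 60 min at 25 °C in 50 mM Tris-HCl pH 7.4 with ascorbic acid and pargyline.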
Usually inhibition stands for the drop in the measured response relative to a control, in per cent. In the case of `Cc1ccc2c(c1)c1c(n2CC(O)c2ccncc2)CCN(C)CC1` (stereo not shown) [Compound No. 43, 2-(2,3,4,5-tetrahydro-3,9-dimethylazepino[4,5-b]indol-6(1H)-yl)-1-(pyridin-4-yl)ethanol], the inhibition at 1 µM is 91%. On to `Cc1ccc2c(c1)c1c(n2CCc2ccncc2)CCN(C)CC1` [Compound No. 6, 1,2,3,4,5,6-hexahydro-3,9-dimethyl-6-(2-(pyridin-4-yl)ethyl)azepino[4,5-b]indole], for which the inhibition at 1 µM was found to be 92%. With `CN1CCc2c(n(CC(=O)Nc3ccccc3)c3ccc(Cl)cc23)CC1` [Compound No. 73, 2-(9-chloro-2,3,4,5-tetrahydro-3-methylazepino[4,5-b]indol-6(1H)-yl)-N-phenylacetamide], the inhibition at 1 µM is 11%. In the case of `Cc1ccc2c(c1)c1c(n2CCc2ccccn2)CCN(C)CC1` [Compound No. 9, 1,2,3,4,5,6-hexahydro-3,9-dimethyl-6-(2-(pyridin-2-yl)ethyl)azepino[4,5-b]indole], the inhibition at 1 µM is 93%. With `CN1CCc2c(n(CC(O)c3cccnc3)c3ccc(Cl)cc23)CC1` (stereo not shown) [Compound No. 18, 2-(9-chloro-2,3,4,5-tetrahydro-3-methylazepino[4,5-b]indol-6(1H)-yl)-1-(pyridin-3-yl)ethanol], the inhibition at 1 µM stood at 64%. To `Cc1ccc2c(c1)c1c(n2CCc2ccc(Cl)cc2)CCN(C)CC1` [Compound No. 28, 6-(4-chlorophenethyl)-1,2,3,4,5,6-hexahydro-3,9-dimethylazepino[4,5-b]indole] belongs 94%. To `CN1CCc2c(n(CCc3ccccc3)c3ccc(Cl)cc23)CC1` [Compound No. 56, 9-chloro-1,2,3,4,5,6-hexahydro-3-methyl-6-phenethylazepino[4,5-b]indole] belongs 95%; to `Cc1ccc2c(c1)c1c(n2CC(O)c2cccnc2)CCN(C)CC1` (stereo not shown) [Compound No. 19, 2-(2,3,4,5-tetrahydro-3,9-dimethylazepino[4,5-b]indol-6(1H)-yl)-1-(pyridin-3-yl)ethanol], 52%; to `Cc1ccc2c(c1)c1c(n2CCc2ccccc2F)CCN(C)CC1` [Compound No. 63, 6-(2-fluorophenethyl)-1,2,3,4,5,6-hexahydro-3,9-dimethylazepino[4,5-b]indole], 5%. Turning to `COc1ccc(C(O)Cn2c3c(c4cc(C)ccc42)CCN(C)CC3)cc1F` (stereo not shown) [Compound No. 68, 1-(3-fluoro-4-methoxyphenyl)-2-(2,3,4,5-tetrahydro-3,9-dimethylazepino[4,5-b]indol-6(1H)-yl)ethanol], the inhibition at 1 µM was found to be 95%.

Regarding `Cc1ccc2c(c1)c1c(n2C(=O)Cc2ccc(F)cc2)CCN(C)CC1` [Compound No. 285, 1-(3,9-dimethyl-2,3,4,5-tetrahydroazepino[4,5-b]indol-6(1H)-yl)-2-(4-fluorophenyl) ethanone], the inhibition at 1 µM turned out to be 99%.

For `CN1CCc2c(n(CC(O)c3ccc(Cl)cc3)c3ccc(Cl)cc23)CC1` (stereo not shown) [Compound No. 16, 2-(9-chloro-2,3,4,5-tetrahydro-3-methylazepino[4,5-b]indol-6(1H)-yl)-1-(4-chlorophenyl)ethanol], the inhibition at 1 µM turned out to be 92%. To `Cc1ccc2c(c1)c1c(n2CC(C)(O)c2ccc(F)cc2)CCN(C)CC1` (stereo not shown) [Compound No. 14, 2-(4-fluorophenyl)-1-(2,3,4,5-tetrahydro-3,9-dimethylazepino[4,5-b]indol-6(1H)-yl)propan-2-ol] belongs 95%; to `CN1CCc2c(n(CC(=O)N3CCCCC3)c3ccc(Cl)cc23)CC1` [Compound No. 57, 2-(9-chloro-2,3,4,5-tetrahydro-3-methylazepino[4,5-b]indol-6(1H)-yl)-1-(piperidin-1-yl)ethanone], 65%; to `Cc1ccc2c(c1)c1c(n2CC(O)c2ccc(F)cc2)CCN(C)CC1` (stereo not shown) [Compound No. 52, 1-(4-fluorophenyl)-2-(2,3,4,5-tetrahydro-3,9-dimethylazepino[4,5-b]indol-6(1H)-yl)ethanol], 96%. For the compound `Cc1ccc2c(c1)c1c(n2/C=C/c2ccccc2F)CCN(C)CC1` [Compound No. 233, (E)-6-(2-fluorostyryl)-3,9-dimethyl-1,2,3,4,5,6-hexahydroazepino[4,5-b]indole], the inhibition at 1 µM turned out to be 100%.

As to `COc1ccc(C(O)Cn2c3c(c4cc(Cl)ccc42)CCN(C)CC3)c(F)c1` (stereo not shown) [Compound No. 49, 2-(9-chloro-2,3,4,5-tetrahydro-3-methylazepino[4,5-b]indol-6(1H)-yl)-1-(2-fluoro-4-methoxyphenyl) ethanol], the inhibition at 1 µM was found to be 98%. For `Cc1ccc2c(c1)c1c(n2CC(O)c2ccccc2F)CCN(C)CC1` (stereo not shown) [Compound No. 41, 1-(2-fluorophenyl)-2-(2,3,4,5-tetrahydro-3,9-dimethylazepino[4,5-b]indol-6(1H)-yl)ethanol] the value was 99%; for `Cc1ccc2c(c1)c1c(n2/C=C/c2ccc(F)cc2)CCN(C)CC1` [Compound No. 39, 6-(4-fluorostyryl)-1,2,3,4,5,6-hexahydro-3,9-dimethylazepino[4,5-b]indole], 97%; for `CN1CCc2c(n(/C=C/c3ccc(F)cc3)c3ccc(Cl)cc23)CC1` [Compound No. 234, (E)-9-chloro-6-(4-fluorostyryl)-3-methyl-1,2,3,4,5,6-hexahydroazepino[4,5-b]indole], 98%.

Turning to `Cc1ccc2c(c1)c1c(n2CC(=O)N(C)C2CCCCC2)CCN(C)CC1` [Compound No. 232, N-cyclohexyl-2-(3,9-dimethyl-2,3,4,5-tetrahydroazepino[4,5-b]indol-6(1H)-yl)-N-methylacetamide], the inhibition at 1 µM was found to be 93%. Consider `Cc1ccc(C(O)Cn2c3c(c4cc(Cl)ccc42)CCN(C)CC3)cn1` (stereo not shown) [Compound No. 7, 2-(9-chloro-2,3,4,5-tetrahydro-3-methylazepino[4,5-b]indol-6(1H)-yl)-1-(6-methylpyridin-3-yl)ethanol], for which the inhibition at 1 µM came out at 64%. To `Cc1ccc2c(c1)c1c(n2CC(O)c2ccc(C)nc2)CCN(C)CC1` (stereo not shown) [Compound No. 23, 2-(2,3,4,5-tetrahydro-3,9-dimethylazepino[4,5-b]indol-6(1H)-yl)-1-(6-methylpyridin-3-yl)ethanol] belongs 37%; to `Cc1ccc2c(c1)c1c(n2CC(C)(O)c2ccc(Cl)cc2)CCN(C)CC1` (stereo not shown) [Compound No. 15, 2-(4-chlorophenyl)-1-(2,3,4,5-tetrahydro-3,9-dimethylazepino[4,5-b]indol-6(1H)-yl)propan-2-ol], 100%. For `Cc1ccc2c(c1)c1c(n2CC(O)c2ccc(Cl)cc2)CCN(C)CC1` (stereo not shown) [Compound No. 17, 1-(4-chlorophenyl)-2-(2,3,4,5-tetrahydro-3,9-dimethylazepino[4,5-b]indol-6(1H)-yl)ethanol] the value was 93%; for `CN1CCc2c(n(CC(=O)N3CCNCC3)c3ccc(Cl)cc23)CC1` [Compound No. 72, 2-(9-chloro-2,3,4,5-tetrahydro-3-methylazepino[4,5-b]indol-6(1H)-yl)-1-(piperazin-1-yl)ethanone], 53%.

In the case of `CN1CCc2c(n(CC(C)(O)c3ccc(Cl)cc3)c3ccc(Cl)cc23)CC1` (stereo not shown) [Compound No. 12, 1-(9-chloro-2,3,4,5-tetrahydro-3-methylazepino[4,5-b]indol-6(1H)-yl)-2-(4-chlorophenyl)propan-2-ol], the inhibition at 1 µM turned out to be 92%. With `CN1CCc2c(n(CCc3ccccc3F)c3ccccc23)CC1` [Compound No. 237, 6-(2-fluorophenethyl)-3-methyl-1,2,3,4,5,6-hexahydroazepino[4,5-b]indole], the inhibition at 1 µM was found to be 100%. Take `COc1ccc(C(O)Cn2c3c(c4cc(Cl)ccc42)CCN(C)CC3)cc1` (stereo not shown) [Compound No. 47, 2-(9-chloro-2,3,4,5-tetrahydro-3-methylazepino[4,5-b]indol-6(1H)-yl)-1-(4-methoxyphenyl)ethanol]: the inhibition at 1 µM amounted to 98%. Consider `C/C(=C\n1c2c(c3cc(C)ccc31)CCN(C)CC2)c1ccc(Cl)cc1Cl` [Compound No. 238, (E)-6-(2-(2,4-dichlorophenyl)prop-1-enyl)-3,9-dimethyl-1,2,3,4,5,6-hexahydroazepino[4,5-b]indole], for which the inhibition at 1 µM was 100%.

With `Cc1ccc2c(c1)c1c(n2CC(=O)N2CCOCC2)CCN(C)CC1` [Compound No. 38, 2-(2,3,4,5-tetrahydro-3,9-dimethylazepino[4,5-b]indol-6(1H)-yl)-1-morpholinoethanone], the inhibition at 1 µM is 98%. To `Cc1ccc2c(c1)c1c(n2/C=C/c2ccccc2)CCN(C)CC1` [Compound No. 229, (E)-3,9-dimethyl-6-styryl-1,2,3,4,5,6-hexahydroazepino[4,5-b]indole] belongs 98%. For `Cc1ccc2c(c1)c1c(n2CC(=O)NC2CCCCC2)CCN(C)CC1` [Compound No. 22, N-cyclohexyl-2-(2,3,4,5-tetrahydro-3,9-dimethylazepino[4,5-b]indol-6(1H)-yl)acetamide] the value was -4%; for `Cc1ccc2c(c1)c1c(n2CC(=O)OC2CCCC2)CCN(C)CC1` [Compound No. 55, Cyclopentyl-2-(2,3,4,5-tetrahydro-3,9-dimethylazepino[4,5-b]indol-6(1H)-yl)acetate], 32%.

The values above are taken from patent publication US9481676B2, “Azepino[4,5-B]indoles and methods of use” (Medivation Technologies, Inc., priority 2008, dated 2016).
